# Experimental data taken from ChEMBL document CHEMBL1201862, “PubChem BioAssay data set” (2004).
# The source made the active and inactive calls.
# Columns and labels:
# [1] = biological target: Glyceraldehyde-3-phosphate dehydrogenase (Homo sapiens, UniProt P04406)
# Bcl-2-related protein A1 [2] = biological target: T1, Bcl-2-related protein A1 (Mus musculus, UniProt Q07440); assay: small-molecule antagonists of Bfl-1/BH3 interaction – biochemical, TR-FRET, mouse Bfl-1, confirmation (AID 621);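 further: TR-FRET binding of GST-Bfl-1 to FITC-labelled Bid peptide via terbium antibody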
# T1 sequence (Q07440 whole entry): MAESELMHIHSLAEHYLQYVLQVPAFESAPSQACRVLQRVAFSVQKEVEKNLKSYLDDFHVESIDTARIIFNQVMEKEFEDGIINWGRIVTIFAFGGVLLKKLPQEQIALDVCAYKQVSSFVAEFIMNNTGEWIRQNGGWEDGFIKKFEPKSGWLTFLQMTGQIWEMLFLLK
# Bcl-2-related protein A1 [3] = biological target: T1, Bcl-2-related protein A1; assay: Bfl-1 binding inhibitors, SAR follow-up, biochemical, fluorescence polarization (AID 1070)
# [4] = biological target: Heat shock protein HSP 90-alpha (Homo sapiens, UniProt P07900); assay: Luminescence-based dose response biochemical high throughput screening assay for inhibitors of the Heat Shock Protein 90 (HSP90). [Related pubchem assays: 1831 (Summary AID.), 1846 (Confirmation screen.), 1789 (Primary screen.)]
# [5] = biological target: T2, RNA-binding protein pos-1 (Caenorhabditis elegans, UniProt G5EF15); assay: disruptors of C. elegans POS-1 RNA interaction – biochemical, fluorescence polarization, dose response (AID 1964);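 further: purified POS-1 fused to maltose binding protein made in E. coli; potency of compounds blocking POS-1 binding to fluorescent RNA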
# T2 sequence (G5EF15 whole entry): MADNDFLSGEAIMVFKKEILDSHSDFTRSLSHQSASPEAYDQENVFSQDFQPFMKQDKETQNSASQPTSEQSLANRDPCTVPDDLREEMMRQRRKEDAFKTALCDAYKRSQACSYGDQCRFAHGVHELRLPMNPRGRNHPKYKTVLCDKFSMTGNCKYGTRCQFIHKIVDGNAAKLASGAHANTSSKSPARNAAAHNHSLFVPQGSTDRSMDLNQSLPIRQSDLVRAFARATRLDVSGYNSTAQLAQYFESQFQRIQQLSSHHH
# [6] = biological target: T3, Zinc finger protein mex-5 (Caenorhabditis elegans, UniProt Q9XUB2); assay: potency of MEX-5 RNA-binding blockers – biochemical, C. elegans, fluorescence polarization, dose response (AID 1960)
# T3 sequence (Q9XUB2 whole entry): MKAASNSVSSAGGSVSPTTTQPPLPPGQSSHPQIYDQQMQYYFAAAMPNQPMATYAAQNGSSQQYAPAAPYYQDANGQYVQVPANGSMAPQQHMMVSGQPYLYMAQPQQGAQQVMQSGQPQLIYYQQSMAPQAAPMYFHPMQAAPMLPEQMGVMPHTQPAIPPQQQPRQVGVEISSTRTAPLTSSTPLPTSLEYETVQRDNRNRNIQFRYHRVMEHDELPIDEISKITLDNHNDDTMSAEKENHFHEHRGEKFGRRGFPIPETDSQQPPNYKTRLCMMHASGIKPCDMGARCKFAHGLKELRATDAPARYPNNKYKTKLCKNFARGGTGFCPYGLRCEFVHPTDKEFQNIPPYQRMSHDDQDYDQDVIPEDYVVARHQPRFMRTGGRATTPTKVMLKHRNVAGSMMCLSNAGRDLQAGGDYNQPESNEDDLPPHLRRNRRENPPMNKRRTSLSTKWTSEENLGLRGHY
# Estrogen receptor beta = Estrogen receptor beta (Homo sapiens, UniProt Q92731);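 further: recombinant ER-beta bound to coactivator SRC1 peptide in presence of estradiol agonist; inhibitors block coactivator peptide binding and lower the FRET signal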
# [7] = biological target: Bifunctional protein GlmU (Mycobacterium tuberculosis, UniProt P9WMN3); assay: Inhibitors of Mycobacterial Glucosamine-1-phosphate acetyl transferase (GlmU). Secondary screen.; design: species or system Mycobacterium tuberculosis H37Rv
# Sequence of Bifunctional protein GlmU (P9WMN3 whole entry): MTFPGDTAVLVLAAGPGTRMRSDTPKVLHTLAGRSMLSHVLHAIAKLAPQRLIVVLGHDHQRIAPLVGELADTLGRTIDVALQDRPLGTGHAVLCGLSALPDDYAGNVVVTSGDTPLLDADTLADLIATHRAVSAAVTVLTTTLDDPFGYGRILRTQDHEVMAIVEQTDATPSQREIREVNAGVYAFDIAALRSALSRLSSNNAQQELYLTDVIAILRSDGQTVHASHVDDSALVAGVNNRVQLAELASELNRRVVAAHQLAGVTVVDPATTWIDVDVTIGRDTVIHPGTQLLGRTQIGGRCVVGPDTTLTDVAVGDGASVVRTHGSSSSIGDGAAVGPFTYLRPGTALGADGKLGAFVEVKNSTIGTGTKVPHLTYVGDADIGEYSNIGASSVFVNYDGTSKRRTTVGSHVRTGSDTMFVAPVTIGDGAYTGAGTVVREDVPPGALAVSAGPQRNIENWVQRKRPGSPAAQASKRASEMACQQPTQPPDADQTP
# Sequence of Glyceraldehyde-3-phosphate dehydrogenase (P04406 whole entry): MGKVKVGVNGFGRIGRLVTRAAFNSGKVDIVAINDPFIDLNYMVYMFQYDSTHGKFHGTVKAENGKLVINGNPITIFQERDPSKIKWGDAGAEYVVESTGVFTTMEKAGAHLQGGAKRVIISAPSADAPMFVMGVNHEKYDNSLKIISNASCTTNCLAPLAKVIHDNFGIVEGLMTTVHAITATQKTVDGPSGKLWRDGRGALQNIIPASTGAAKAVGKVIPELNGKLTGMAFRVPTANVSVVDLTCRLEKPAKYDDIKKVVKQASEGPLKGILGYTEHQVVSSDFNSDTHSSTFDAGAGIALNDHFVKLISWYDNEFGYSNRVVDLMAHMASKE
# Sequence of Estrogen receptor beta (Q92731 whole entry): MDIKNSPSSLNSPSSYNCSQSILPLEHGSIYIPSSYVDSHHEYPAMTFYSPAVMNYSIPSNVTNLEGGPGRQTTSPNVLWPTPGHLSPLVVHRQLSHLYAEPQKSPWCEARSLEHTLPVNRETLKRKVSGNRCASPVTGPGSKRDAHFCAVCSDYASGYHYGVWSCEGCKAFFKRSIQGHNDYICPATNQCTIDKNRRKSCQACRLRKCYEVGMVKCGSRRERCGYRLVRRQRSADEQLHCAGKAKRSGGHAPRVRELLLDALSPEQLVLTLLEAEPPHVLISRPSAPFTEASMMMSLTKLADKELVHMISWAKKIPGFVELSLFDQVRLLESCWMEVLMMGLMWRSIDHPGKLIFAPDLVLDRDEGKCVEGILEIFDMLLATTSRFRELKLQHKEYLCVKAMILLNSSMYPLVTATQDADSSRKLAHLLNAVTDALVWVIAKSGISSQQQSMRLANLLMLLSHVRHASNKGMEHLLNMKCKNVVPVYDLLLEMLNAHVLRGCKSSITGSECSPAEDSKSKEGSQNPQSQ
SMILES,IC50 [1],IC50 (Bcl-2-related protein A1 [2]),IC50 (Bcl-2-related protein A1 [3]),IC50 [4],other results
CN1CCN(C2=C(Cl)C(=O)N(c3cccc([N+](=O)[O-])c3)C2=O)CC1,> 100 µM (not active),3.94 µM (active),6.79 µM (active),,
Cc1cccc(N2C(=O)C(Cl)=C(N3CCN(CCOCCO)CC3)C2=O)c1,> 100 µM (not active),6.43 µM (active),4.46 µM (active),,
COCC(C)n1c(C)cc(C(=O)Cn2nc(C(=O)O)c3ccccc3c2=O)c1C (configuration not stated),,,,11.4 µM (not active),
O=c1oc2ccc(Cl)cc2nc1/C=C(\O)c1cccs1,,,,2.2 µM (active),EC50 [5]: 230 µM (active); EC50 [6]: 153 µM (active)
Cc1c(Cl)cccc1NC(=O)CC1SCCNC1=O (configuration not stated),,,,,IC50 (Estrogen receptor beta): > 50 µM (not active)
O=C(O)C1C2C=CC(CC2)C1C(=O)O (configuration not stated),,,,,IC50 [7]: 114 µM (active)
